Experiment [1] deals with T1, Sa-ClpP (Staphylococcus aureus, UniProt Q2G036).
T1 construct: made in house; host or cells: E. coli BL21(DE3)
T1 sequence (Q2G036 1-195): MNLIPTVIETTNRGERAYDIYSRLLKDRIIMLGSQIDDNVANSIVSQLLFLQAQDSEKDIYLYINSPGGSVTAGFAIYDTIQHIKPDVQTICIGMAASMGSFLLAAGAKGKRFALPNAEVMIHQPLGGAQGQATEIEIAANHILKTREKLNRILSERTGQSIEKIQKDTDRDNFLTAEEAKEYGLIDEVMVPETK
Briefly: Sa-ClpP casein-BODIPY ClpP activation assay, method variant not marked in Table 5. The class given is biochemical, S. aureus. A digest of the protocol:
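EC50 for activation derived by dose-response fitting of casein digestion rates, run in triplicate. Conditions: 37° C, pH 8 buffer with 200 mM KCl and 1 mM TCEP, 10 μM Sa-ClpP, 25 μg/ml BODIPY FL casein, compound at 0-1000 μM; signal at 485/528 nm followed 45 min.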

In experiment [2] the target is T1, Sa-ClpP. The experiment can be described thus: ADEP displacement fluorescence polarization assay (FP probe ADEP 2591). Type of experiment: binding. A digest of the protocol: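 Probe displacement was measured in mP after compounds sat 120 min at room temperature with pre-equilibrated (1 h) Sa-ClpP (15 μM) and ADEP 2591 FP probe (50 nM) in pH 8.0 Tris-HCl with 2% DMSO. Data were scaled between DMSO and 200 μM ADEP 2378 and fit by variable-slope log-inhibitor regression.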

In US10457707B2, “Substituted urea depsipeptide analogs as activators of the CLPP endopeptidase” (priority 2015, dated 2019) one finds EC50 and IC50 data, which are given here for four compounds.

*1 amine or outer side, *2 acyl side, *3 side chain or, on linkers, in order; H or OH if unused. Where a SMILES comes first, the peptide text is derived from it. Bridges are numbered along the chain shown (N, C = ends). [ ]: non-standard residue; d: D form. The star is where a group is joined. Piperazine(2S-CO,4-Me) = CN1CCN[C@H](C(=O)O)C1; Phe(3,5-F2) = N[C@@H](Cc1cc(F)cc(F)c1)C(=O)O; Morpholine(3S-CO) = O=C(O)[C@@H]1COCCN1; NH(4-Cl-2-F-phenyl) = Fc1cc(Cl)ccc1N*; Pro(4R-Me) = C[C@H]1CN[C@H](C(=O)O)C1; Hyp = O=C(O)[C@@H]1C[C@@H](O)CN1; aThr = C[C@H](O)[C@H](N)C(=O)O; Pip = O=C(O)[C@@H]1CCCCN1; X1 = N#Cc1cc(N*)ccc1F; CO = O=C([*:1])[*:2]

As to `C[C@@H]1C[C@H]2C(=O)OC[C@H](NC(=O)[C@H](Cc3cc(F)cc(F)c3)NC(=O)Nc3ccc4c(c3)OCO4)C(=O)N3C[C@H](O)C[C@H]3C(=O)N3CCCCC3C(=O)N[C@@H](C)C(=O)N2C1` (stereo partly drawn) [Compound 325, (S)-2-(3-(benzo[d][1,3]dioxol-5-yl)ureido)-3-(3,5-difluorophenyl)-N-((2R,6S,8aR,14aS,16R,20S,23aS)-16-hydroxy-2,6-dimethyl-5,8,14,19,23-pentaoxooctadecahydro-1H,5H,14H,19H-pyrido[2,1-i]dipyrrolo[2,1-c:2′,1′-l][1]oxa[4,7,10,13]tetraazacyclo-hexadecin-20-yl)propanamide], the 50% effective concentration (EC50) in experiment [1] came to 350 ± 20 nM. The IC50 in experiment [2] was determined as 4.27 ± 0.2 µM.

The compound `C[C@@H]1C[C@H]2C(=O)O[C@@H](C)[C@H](NC(=O)[C@H](Cc3cc(F)cc(F)c3)NC(=O)Nc3ccc(F)c(C#N)c3)C(=O)N3C[C@H](O)C[C@H]3C(=O)N3CCOC[C@H]3C(=O)N[C@@H](C)C(=O)N2C1` [Compound 326, (S)-2-(3-(3-cyano-4-fluorophenyl)ureido)-3-(3,5-difluorophenyl)-N-((6aS,8R,12S,13S,15aS,17R,21S,23aS)-8-hydroxy-13,17,21-trimethyl-6,11,15,20,23-pentaoxooctadecahydro-6H,11H,15H-[1,4]oxazino[3,4-i]dipyrrolo[2,1-c:2′,1′-l][1]oxa[4,7,10,13]tetraazacyclo-hexadecin-12-yl)propanamide] ({X1-CO}-[Phe(3,5-F2)][aThr][Hyp][Morpholine(3S-CO)]A[Pro(4R-Me)]; ester 2-C) gave an EC50 in experiment [1] of 460 ± 40 nM. In experiment [2], the IC50 stood at 7.52 ± 0.3 µM.

As for `C[C@@H]1C[C@H]2C(=O)O[C@@H](C)[C@H](NC(=O)[C@H](Cc3cc(F)cc(F)c3)NC(=O)Nc3ccc(Cl)cc3F)C(=O)N3C[C@H](O)C[C@H]3C(=O)N3CCCC[C@H]3C(=O)N[C@@H](C)C(=O)N2C1` [Compound 329, (S)-2-(3-(4-chloro-2-fluorophenyl)ureido)-3-(3,5-difluorophenyl)-N-((2R,6S,8aS,14aS,16R,20S,21S,23aS)-16-hydroxy-2,6,21-trimethyl-5,8,14,19,23-pentaoxooctadecahydro-1H,5H,14H,19H-pyrido[2,1-i]dipyrrolo[2,1-c:2′,1′-l][1]oxa[4,7,10,13]tetraazacyclo-hexadecin-20-yl)propanamide] ({NH(4-Cl-2-F-phenyl)-CO}-[Phe(3,5-F2)][aThr][Hyp][Pip]A[Pro(4R-Me)]; ester 2-C), the EC50 in experiment [1] came out at 400 ± 20 nM. In experiment [2], this compound showed an IC50 of 7.32 ± 0.4 µM.

Consider `C[C@@H]1C[C@H]2C(=O)OC[C@H](NC(=O)[C@H](Cc3cc(F)cc(F)c3)NC(=O)Nc3ccc(Cl)cc3F)C(=O)N3CCC[C@H]3C(=O)N3CCN(C)C[C@H]3C(=O)N[C@@H](C)C(=O)N2C1` [Compound 330, (S)-2-(3-(4-chloro-2-fluorophenyl)ureido)-3-(3,5-difluorophenyl)-N-((6aS,12S,15aS,17R,21S,23aS)-2,17,21-trimethyl-6,11,15,20,23-pentaoxooctadecahydro-2H,6H,11H,15H-pyrazino[2,1-i]dipyrrolo[2,1-c:2′,1′-l][1]oxa[4,7,10,13]tetraazacyclohexadecin-12-yl)propanamide] ({NH(4-Cl-2-F-phenyl)-CO}-[Phe(3,5-F2)]SP[Piperazine(2S-CO,4-Me)]A[Pro(4R-Me)]; ester 2-C), for which the EC50 in experiment [1] is 290 ± 20 nM. The compound further had an IC50 in experiment [2] of 3.74 ± 0.2 µM.
